# Legend:
# Assay in all cases: relative viability (nuclei count vs DMSO), 5 days (fraction); higher = more cells survive
# BX 795 + Bortezomib = compound: O=C(NCCCNc1nc(Nc2cccc(NC(=O)N3CCCC3)c2)ncc1I)c1cccs1 [BX 795] + CC(C)C[C@H](NC(=O)[C@H](Cc1ccccc1)NC(=O)c1cnccn1)B(O)O [Bortezomib] (partner 0.002 µM)
# Outline: (§1)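 The day after seeding in 1536-well plates, lung cancer cell lines were treated by pin tool with a single drug, or with a fixed anchor-drug dose together with five library-drug doses (not always all listed) in √10 steps. After 5 days, a combined fix-and-stain solution (final 0.05% Triton X-100, 1% formaldehyde, 1 ug/ml Hoechst) was added. Nuclei counted on 4× images gave relative viability as treated counts over vehicle counts, reported as the median of duplicate plates.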
# BX 795 + Navitoclax = compound: O=C(NCCCNc1nc(Nc2cccc(NC(=O)N3CCCC3)c2)ncc1I)c1cccs1 [BX 795] + CC1(C)CCC(c2ccc(Cl)cc2)=C(CN2CCN(c3ccc(C(=O)NS(=O)(=O)c4ccc(N[C@H](CCN5CCOCC5)CSc5ccccc5)c(S(=O)(=O)C(F)(F)F)c4)cc3)CC2)C1 [Navitoclax] (partner 0.5 µM)
# Outline: as §1
# BX 795 + Pictilisib = compound: O=C(NCCCNc1nc(Nc2cccc(NC(=O)N3CCCC3)c2)ncc1I)c1cccs1 [BX 795] + CS(=O)(=O)N1CCN(Cc2cc3nc(-c4cccc5[nH]ncc45)nc(N4CCOCC4)c3s2)CC1 [Pictilisib] (partner 1 µM)
# Outline: as §1
# BX 795 + Crizotinib = compound: O=C(NCCCNc1nc(Nc2cccc(NC(=O)N3CCCC3)c2)ncc1I)c1cccs1 [BX 795] + C[C@@H](Oc1cc(-c2cnn(C3CCNCC3)c2)cnc1N)c1c(Cl)ccc(F)c1Cl [Crizotinib] (partner 1 µM)
# Outline: as §1
# BX 795 + Decitabine = compound: O=C(NCCCNc1nc(Nc2cccc(NC(=O)N3CCCC3)c2)ncc1I)c1cccs1 [BX 795] + Nc1ncn([C@H]2C[C@H](O)[C@@H](CO)O2)c(=O)n1 [Decitabine] (partner 2 µM)
# Outline: as §1
Cell Line,relative viability (BX 795 + Bortezomib; first compound 0.04 µM),relative viability (BX 795 + Bortezomib; first compound 0.1265 µM),relative viability (BX 795 + Bortezomib; first compound 0.4 µM),relative viability (BX 795 + Bortezomib; first compound 1.265 µM),relative viability (BX 795 + Navitoclax; first compound 0.04 µM),relative viability (BX 795 + Navitoclax; first compound 0.1265 µM),relative viability (BX 795 + Navitoclax; first compound 0.4 µM),relative viability (BX 795 + Navitoclax; first compound 1.265 µM),relative viability (BX 795 + Pictilisib; first compound 0.04 µM),relative viability (BX 795 + Pictilisib; first compound 0.1265 µM),relative viability (BX 795 + Pictilisib; first compound 0.4 µM),relative viability (BX 795 + Pictilisib; first compound 1.265 µM),relative viability (BX 795 + Crizotinib; first compound 0.04 µM),relative viability (BX 795 + Crizotinib; first compound 0.1265 µM),relative viability (BX 795 + Crizotinib; first compound 0.4 µM),relative viability (BX 795 + Crizotinib; first compound 1.265 µM),relative viability (BX 795 + Decitabine; first compound 0.04 µM),relative viability (BX 795 + Decitabine; first compound 0.1265 µM),relative viability (BX 795 + Decitabine; first compound 0.4 µM),relative viability (BX 795 + Decitabine; first compound 1.265 µM)
NCI-H2009,0.97,0.924,0.996,0.804,1.23,1.1,1.19,0.853,0.777,0.744,0.823,0.626,1.02,0.972,0.874,0.645,0.391,0.39,0.4,0.374
HCC-827,1.01,1.01,1.06,0.986,1.1,0.974,1.05,0.908,1.13,1.02,1.12,0.961,0.935,0.923,0.892,0.712,0.416,0.327,0.387,0.303
NCI-H2085,1.04,0.98,1.02,0.999,1.12,1.17,1.27,1.01,0.463,0.454,0.433,0.489,0.911,0.841,0.843,0.732,0.683,0.501,0.737,0.575
RERF-LC-KJ,1.09,1.23,1.14,1.02,0.759,0.93,0.771,0.881,0.488,0.574,0.536,0.446,0.86,0.767,0.699,0.669,0.762,0.759,0.792,0.56
ChaGo-K-1,1.02,0.916,0.977,0.91,0.817,0.919,0.933,0.982,0.615,0.52,0.735,0.776,1.11,1.14,1.05,0.961,0.535,0.544,0.538,0.398
NCI-H1734,0.965,1.03,0.914,0.545,0.882,0.945,0.828,0.618,0.463,0.471,0.411,0.368,0.765,0.727,0.64,0.432,0.582,0.613,0.545,0.504
LC-2-ad,1.11,1.01,1.06,0.968,0.503,0.448,0.467,0.213,0.471,0.387,0.333,0.202,0.558,0.316,0.325,0.402,0.777,0.835,0.74,0.611
LU99A,1.23,1.02,0.8,0.773,1.03,0.755,0.821,0.498,0.384,0.317,0.329,0.252,0.646,0.593,0.455,0.361,0.967,0.81,0.921,0.428
HCC-78,0.735,0.487,0.438,0.41,0.857,0.926,0.792,0.718,0.236,0.206,0.154,0.218,0.413,0.354,0.355,0.318,0.913,0.664,0.825,0.653
UMC-11,0.678,0.983,0.847,0.36,0.321,0.347,0.326,0.17,0.726,0.86,0.683,0.534,0.608,0.584,0.322,0.0915,0.457,0.688,0.436,0.593
NCI-H2405,0.965,1.03,0.91,0.941,0.827,0.848,0.588,0.7,0.373,0.364,0.295,0.319,0.806,0.842,0.635,0.794,0.869,0.742,0.693,0.722
HARA,1.12,1.03,1.1,1.06,1.13,1.13,1.24,1.13,0.403,0.412,0.496,0.474,1.21,1.06,1,0.601,0.618,0.578,0.684,0.553
NCI-H322M,1.39,1.26,1.44,1.39,1.41,1.19,1.35,1.25,0.627,0.521,0.537,0.527,0.906,0.959,0.711,0.912,0.87,0.887,0.801,0.741
HCC-44,0.818,0.929,1.1,0.772,0.872,1.05,1.02,0.708,0.55,0.672,0.681,0.594,0.811,0.876,0.973,0.581,0.952,0.983,1.07,1
EPLC-272H,1.02,,0.857,0.824,1.14,,1.27,1.12,0.364,,0.308,0.304,0.984,,0.922,0.813,0.356,0.472,0.374,0.305
NCI-H3122,1.02,1.04,1.04,0.986,1.03,1,1.04,1.05,0.588,0.656,0.588,0.595,0.293,0.266,0.282,0.296,0.415,0.428,0.477,0.532
NCI-H727,1.05,0.962,0.926,0.739,0.45,0.535,0.471,0.37,0.498,0.643,0.31,0.315,0.868,0.986,0.634,0.492,1.23,0.943,0.845,0.905
NCI-H520,0.355,0.36,0.356,0.308,0.736,1.12,0.95,0.535,0.303,0.321,0.279,0.28,0.662,0.571,0.443,0.249,0.55,0.545,0.622,0.425
201T,1.12,1.08,1.18,1.11,1.18,1.21,1.24,1.21,0.689,0.679,0.721,0.68,1.06,1.03,1.1,1.03,0.886,0.871,1,0.867
NCI-H441,0.393,0.541,0.747,0.577,0.867,0.429,1.03,0.564,0.609,0.503,0.666,0.37,0.874,0.695,0.878,0.508,0.281,0.262,0.316,0.245
HCC-366,1.08,1.1,0.866,1.09,0.865,0.977,0.74,0.823,0.145,0.137,0.104,0.0928,0.541,0.616,0.188,0.313,0.332,0.371,0.31,0.255
LXF-289,0.981,1,0.977,0.967,0.971,0.926,0.975,0.628,0.844,0.77,0.879,0.649,0.86,0.82,0.778,0.47,0.448,0.347,0.582,0.373
NCI-H2023,0.932,0.965,0.433,0.675,0.933,1.08,0.36,0.645,0.152,0.239,0.188,0.197,0.592,0.626,0.269,0.282,0.241,0.238,0.21,0.199
NCI-H2347,1.19,1.05,1.23,0.934,1.02,0.743,1.05,0.76,0.818,0.492,0.851,0.722,0.8,0.616,0.801,0.545,0.65,0.653,0.69,0.636
NCI-H1650,0.219,0.2,0.189,0.193,1.17,1.12,1.41,0.649,0.698,0.576,0.517,0.498,0.98,0.969,0.786,0.591,0.571,0.471,0.548,0.644
NCI-H1792,0.963,1.08,1.12,0.954,0.624,0.556,0.708,0.568,0.286,0.269,0.24,0.191,1.01,1.08,1.09,0.892,0.546,,0.588,0.408
SW 1573,1.11,1.21,1.29,0.877,0.886,1.13,1.12,0.837,0.551,0.463,0.608,0.381,0.832,0.887,0.584,0.667,0.651,0.652,0.581,0.381

# Source: the supplement of paper PMC10307832
